In patent US9174942B2, “IDO inhibitors” (NewLink Genetics Corporation, priority 2008, dated 2015) one finds IC50 data, which are given here for 16 molecules.

pIC50: −log10 of the molar value. Counter-ions that a name gives are not always drawn.

The assay addresses T1, purified human IDO protein (Homo sapiens, UniProt P14902, E119G/P110S).
T1 construct: 6-Histidine tag (C); made in house; host or cells: E. coli M15(pREP4) transformed with pQE70-hIDO
As to the kind of experiment: Enzymatic IDO assay (kynurenine formation, absorbance at 480 nm). The class given is biochemical. The note with it: recombinant human IDO, 200 μM L-tryptophan, pH 6.5; reported in ranges. How it is done: The inhibitors were initially diluted in DMSO at 100 mM and were diluted in potassium phosphate 50 mM, added to the reaction mixture at final concentrations raging from 1 mM to 5 nM and preincubated with the enzyme for 5 min at 25° C. The reaction was started by addition of L-tryptophan to 200 μM and incubated 15 min at 37° C. The reaction was stopped by addition of 0.5 vol of 30% trichloroacetic acid and incubated 30 min at 60° C. to hydrolyze N-formylkynurenine to kynurenine. The reaction was centrifuged at 3400 g for 5 min to remove precipitated protein and the supernatant was reacted with 2% (w/v) of p-dimethylaminobenzaldehyde in acetic acid. The reaction was incubated 10 min at 25° C. and read at 480 nm in a spectrophotometer. […] Nonlinear regressions and determination of the IC50 values were performed using the GraphPad Prism 4 software.

T1 sequence (P14902 whole entry P110S/E119G): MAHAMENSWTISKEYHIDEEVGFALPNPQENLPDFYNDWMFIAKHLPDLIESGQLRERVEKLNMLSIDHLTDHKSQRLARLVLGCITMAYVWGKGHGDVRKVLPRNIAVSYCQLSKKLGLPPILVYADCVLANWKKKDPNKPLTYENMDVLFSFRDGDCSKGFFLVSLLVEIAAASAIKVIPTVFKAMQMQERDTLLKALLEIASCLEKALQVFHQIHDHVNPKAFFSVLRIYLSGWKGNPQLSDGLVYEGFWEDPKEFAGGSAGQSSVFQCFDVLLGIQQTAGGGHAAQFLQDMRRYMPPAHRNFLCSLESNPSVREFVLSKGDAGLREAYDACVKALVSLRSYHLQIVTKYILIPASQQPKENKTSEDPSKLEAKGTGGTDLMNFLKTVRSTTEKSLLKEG

In the case of `c1ccc(CCc2nc[nH]c2-c2ccccc2)cc1` [Compound 126, 4-phenethyl-5-phenyl-1H-imidazole], the pIC50 is 3.30 to 4.00.

In the case of `CC(C)(C)CCOc1c(Br)cccc1-c1c[nH]cn1` [Compound 26, 4-(3-bromo-2-(3,3-dimethylbutoxy)phenyl)-1H-imidazole], the pIC50 was over 4.70.

Regarding `Clc1cccc(CCOc2ccccc2-c2c[nH]cn2)c1` [Compound 33, 4-(2-(3-chlorophenethoxy)phenyl)-1H-imidazole], the pIC50 was over 4.70.

For the molecule `CC(C)(C)CCOc1cccc(O)c1-c1cnc[nH]1` [Compound 13, 3-(3,3-dimethylbutoxy)-2-(1H-imidazol-5-yl) phenol hydrochloride], the pIC50 is over 4.70.

As to `NC(=O)C1CCC(=CCOc2ccccc2-c2c[nH]cn2)CC1` (stereo not shown) [Compound 168, 4-(2-(2-(1H-imidazol-4-yl)phenoxy)ethylidene)cyclohexanecarboxamide], the negative-log IC50 (pIC50) was over 4.70.

In the case of `Clc1ccc(CCOc2ccccc2-c2c[nH]cn2)cc1` [Compound 61, 4-(2-(4-chlorophenethoxy)phenyl)-1H-imidazole], the pIC50 was 4.00 to 4.70.

As to `Clc1ccc(Cn2cncc2-c2ccccc2)cc1` [Compound 54, 1-(4-chlorobenzyl)-5-phenyl-1H-imidazole], the pIC50 was 4.00 to 4.70.

For `COc1ccc(Cn2cncc2-c2ccccc2)cc1` [Compound 68, 1-(4-methoxybenzyl)-5-phenyl-1H-imidazole], the pIC50 is 4.00 to 4.70.

Take `COC(=O)Cn1cncc1-c1ccccc1` [Compound 105, methyl 2-(5-phenyl-1H-imidazol-1-yl)acetate]: the pIC50 was 3.30 to 4.00.

In the case of `N#CC1CCC(=CCOc2ccccc2-c2c[nH]cn2)CC1` (stereo not shown) [Compound 160, 4-(2-(2-(1H-imidazol-4-yl)phenoxy)ethylidene)cyclohexanecarbonitrile], the pIC50 is over 4.70.

In the case of `CC(=O)N1CCC(CCOc2ccccc2-c2c[nH]cn2)CC1` [Compound 151, 1-(4-(2-(2-(1H-imidazol-4-yl)phenoxy)ethyl)piperidin-1-yl)ethanone], the pIC50 was over 4.70.

Take `N#Cc1ccccc1Cn1cncc1-c1ccccc1` [Compound 96, 2-((5-phenyl-1H-imidazol-1-yl)methyl)benzonitrile]: the pIC50 was 4.00 to 4.70.

Regarding `CS(=O)(=O)Nc1ccccc1-c1c[nH]cn1` [Compound 101, N-(2-(1H-imidazol-4-yl)phenyl)methanesulfonamide], the pIC50 is 3.30 to 4.00.

As to `Oc1ccc(O)c(-c2c[nH]cn2)c1` [Compound 21, 2-(1H-imidazol-4-yl)benzene-1,4-diol], the pIC50 was over 4.70.

Consider `Clc1ccccc1CCOc1ccccc1-c1c[nH]cn1` [Compound 15, 4-(2-(2-chlorophenethoxy)phenyl)-1H-imidazole], for which the pIC50 is over 4.70.

For `O=[N+]([O-])c1cccc(Cn2cncc2-c2ccccc2)c1` [Compound 95, 1-(3-nitrobenzyl)-5-phenyl-1H-imidazole], the pIC50 was 4.00 to 4.70.

One may read the pIC50 as −log10 of the IC50, conventionally taken in molar units.
